Experiments:
Type in all cases: in vivo
male ICR mouse [1] = test: Hot plate test in mouse; conditions: po, p.o, 1 hour after dosing, hot plate 55° C., read-out: Hot Plate Test Increase in latency of avoidance response
Protocol: A hot plate test is one of representative models for measuring an analgesic effect of drugs. A test material dissolved in a suitable vehicle was orally administered to a male ICR mouse weighing 25 to 30 g at an amount of 30 mg/kg. After 1 hour of the oral administration, the mouse was put on a hot plate (55° C.). A latency was recorded from the time right after a mouse is put on a hot plate to the time when avoidance responses (flinching, licking, jumping, etc.) to pain are observed from forefeet or rear legs of the mouse. The analgesic effect of the test material is represented by the ‘Increase in latency of avoidance response’ {[(Latency of avoidance response to pain of Test material-administered group−Latency of avoidance response to pain of vehicle-administered group)/(Latency of avoidance response to pain of Solvent-administered group)]×100%}.

male ICR mouse [2] = test: Acetic acid-induced writhing test in mouse; conditions: po, p.o, acetic acid i.p. 1 hour after dosing, writhing counted for 10 minutes, read-out: Writhing Test Suppression of pain response
Protocol: An acetic acid-induced writhing test is one of models for measuring an analgesic effect of drugs. A test material dissolved in a suitable vehicle was orally administered to a male ICR mouse weighing 30 to 35 g at an amount of 10 mg/kg. After 1 hour of the oral administration, […] of an aqueous 0.8% acetic acid solution was intraperitoneally injected into the male ICR mouse to induce the abdominal pain of the male ICR mouse. Right after the administration of acetic acid, the male ICR mouse was put into an empty cage, and the number of writhing behaviors of the mice was counted for 10 minutes. The term “writhing” represents a reflex action in which the mouse overtly extends its abdomen by stretching its hind legs due to the abdominal pain. The analgesic effect of the test material is represented by the ‘suppression of pain response’ {[(Writhing number of vehicle-administered group−Writhing number of Test material—administered group)/(Writhing number of Solvent-administered group)]×100%}.

male ICR mouse [3] = test: Elevated plus maze (EPM) test in mouse; conditions: po, p.o, 1 hour after dosing, 5 minutes observation, read-out: Elevated Plus Maze Change index in Open-Arm Time
Excerpt: Elevated plus maze (EPM) is one of representative models that examine an anti-anxiety activity of a test material. Equipment used for an EPM test has a crossroad shape raised in a high position off the ground, and is configured in such a cliff shape that both sides of one road are protected with high walls and the other road is free from the wall. Among them, the road in the cliff shape is referred to as an ‘open arm,’ and the road protected by the walls is referred to as a ‘close arm.’ In this case, a level of the anxiety of a mouse may be measured by determining in which arm the mouse stays longer. In general, the mouse stays longer in the close arm than the open arm, but a mouse treated with a medicine showing an anti-anxiety effect stays relatively longer in the open arm. A test material dissolved in a suitable vehicle was orally administered to a male ICR mouse weighing 20 to 25 g at an amount of 10 mg/kg. After 1 hour of the oral administration, the mouse was put on the center of an EPM equipment to measure how long the mouse stays in the open arm within a time range of 5 minutes. The anti-anxiety effect of the test material is represented by the ‘Change index in Open-Arm Time’ {[(open arm duration in test material-administered group−open arm duration in vehicle-administered group)/(open arm duration in vehicle administered group)]×100%}.

male ICR mouse [4] = test: Head twitch potentiation induced by 5-HTP (5-HTP potentiation test) in mouse; conditions: po, 0.5 h, p.o, 5-HTP 80 mg/kg + Carbidopa 25 mg/kg i.p. 30 minutes after dosing, head twitches counted for 2 minutes, negative = 5-HT2A antagonist, read-out: 5-HTP Potentiation Increase rate in Head Twitch No.
Protocol: When 5-hydroxy-L-tryptophan (5-HTP) is administered into a mouse, a head twitch phenomenon is observed since serotonin is increasingly secreted in the mouse. […] By using this principle, it is possible to search an effect of the representative antidepressant agent. A test material dissolved in a suitable vehicle was orally administered to a male ICR mouse weighing 20 to 25 g at an amount of 30 mg/kg. After 30 minutes of the oral administration, 5-HTP (80 mg/kg) and 5-HTP peripheral decarbozylase inhibitor ‘Carbidopa’ (25 mg/kg) were intraperitoneally administered to the mouse. After 30 minutes of the intraperitoneal administration, the mouse was put into an observation cage, and head twitches of the mouse were counted for 2 minutes. The anti-depression effect of the test material is represented by the ‘Increase rate in Head Twitch No.’ {[(Head Twitch No. of Test material-administered group−Head Twitch No. of vehicle-administered group)/(Head Twitch No. of vehicle-administered group)]×100%}. […] In addition to the selective serotonin reuptake inhibitor (SSRI) that has been widely used as an antidepressant agent in the clinical fields, it was tested that 5-HT2A antagonists such as nefazodone and trazodone also have an antidepressant effect.

Row | Compound | change in vivo at 30 mg/kg (male ICR mouse [1]) | inhibition in vivo at 10 mg/kg (male ICR mouse [2]) | change in vivo at 10 mg/kg (male ICR mouse [3]) | change in vivo at 30 mg/kg (male ICR mouse [4])
1 | NC(=O)OC(CC(=O)N1CCN(Cc2ccc(Cl)c(Cl)c2)CC1)c1ccccc1 (stereo not shown) [Example 37, carbamic acid 3-[4-(3,4-dichloro-benzyl)-piperazin-1-yl]-3-oxo-1-phenyl-propyl ester] | 10% | 38.1% | 98.8% | 167%
2 | NC(=O)OC(CC(=O)N1CCN(CCc2ccc(Cl)c(Cl)c2)CC1)c1ccccc1 (stereo not shown) [Example 39, carbamic acid 3-{4-[2-(3,4-dichloro-phenyl)-ethyl]-piperazin-1-yl}-3-oxo-1-phenyl-propyl ester] | 18.7% | 23.2% | 57.8% | 319%
3 | NC(=O)OC(CCC(=O)N1CCN(c2ccc(Cl)c(Cl)c2)CC1)c1ccccc1 (stereo not shown) [Example 40, carbamic acid 4-[4-(3,4-dichloro-phenyl)-piperazin-1-yl]-4-oxo-1-phenyl-butyl ester] | 27.8% | 11.1% | 68.8% | 311%
4 | NC(=O)OC(CC(=O)N1CCN(c2ccccc2)CC1)c1ccccc1Cl (stereo not shown) [Example 43, carbamic acid 1-(2-chloro-phenyl)-3-oxo-3-(4-phenyl-piperazin-1-yl)-propyl ester] | 26.7% | 46% | 19.7% | 211%
5 | NC(=O)OC(CC(=O)N1CCN(c2ccccc2)CC1)c1cccc(C(F)(F)F)c1 (stereo not shown) [Example 45, carbamic acid 1-(3-trifluormethyl-phenyl)-3-oxo-3-(4-phenyl-piperazin-1-yl)-propyl ester] | 6.9% | 19% | 74.5% | 167%
6 | NC(=O)OC(CC(=O)N1CCN(c2ccccc2)CC1)c1cccc(Br)c1 (stereo not shown) [Example 46, carbamic acid 1-(3-bromo-phenyl)-3-oxo-3-(4-phenyl-piperazin-1-yl)-propyl ester] | 33.1% | 71.3% | 5.7% | 40.3%
7 | NC(=O)OC(c1ccccc1)C(F)(F)C(=O)N1CCN(c2ccccc2)CC1 (stereo not shown) [Example 47, carbamic acid 2,2-difluoro-3-oxo-1-phenyl-3-(4-phenyl-piperazin-1-yl)-propyl ester] | 27.2% | 28.8% | 21.4% | 22.5%
8 | NC(=O)OC(CC(=O)N1CCN(c2ccccc2)CC1)c1ccoc1 (stereo not shown) [Example 49, carbamic acid-1-furan-3-yl-3-oxo-3-(4-phenyl-piperazin-1-yl)-propyl ester] | 20.6% | 34.4% | 48.9% | -20%
9 | Cc1cccc(C(CC(=O)N2CCN(c3ccccc3)CC2)OC(N)=O)c1 (stereo not shown) [Example 50, carbamic acid 1-(3-methyl-phenyl)-3-oxo-3-(4-phenyl-piperazin-1-yl)-propyl ester] | 31.3% | 15% | 65.4% | -21.3%
10 | NC(=O)OC(CC(=O)N1CCN(c2ccccc2)CC1)c1cccc(Cl)c1 (stereo not shown) [Example 51, carbamic acid 1-(3-chloro-phenyl)-3-oxo-3-(4-phenyl-piperazin-1-yl)-propyl ester] | 29.2% | 50.8% | -0.7% | 40.3%
11 | NC(=O)OC1c2ccccc2CCC1C(=O)N1CCN(c2ccccc2)CC1 (stereo not shown) [Example 52, carbamic acid-2-(4-phenyl-piperazine-1-carbonyl)-1,2,3,4-tetrahydro-naphthalene-1-yl ester] | 20.5% | 26.8% | 14.6% | 40%
12 | NC(=O)OC(CC(=O)N1CCN(c2ccccc2)CC1)c1ccc(Cl)c(Cl)c1 (stereo not shown) [Example 53, carbamic acid 1-(3,4-dichloro-phenyl)-3-oxo-3-(4-phenyl-piperazin-1-yl)-propyl ester] | 10.6% | 28.5% | -17.7% | 50%
13 | NC(=O)OC(CC(=O)N1CCN(c2ccccc2)CC1)c1cc(C(F)(F)F)cc(C(F)(F)F)c1 (stereo not shown) [Example 55, carbamic acid 1-(3,5-trifluoromethyl-phenyl)-3-oxo-3-(4-phenyl-piperazin-1-yl)-propyl ester] | 13.9% | 32.8% | 13.8% | 22.5%
14 | NC(=O)OC(CC(=O)N1CCN(c2ccccc2)CC1)c1ccc(Cl)cc1Cl (stereo not shown) [Example 56, carbamic acid 1-(2,4-dichloro-phenyl)-3-oxo-3-(4-phenyl-piperazin-1-yl)-propyl ester] | 11.8% | 23.3% | 23.9% | 40%
15 | NC(=O)OC(CC(=O)N1CCN(c2ccccc2)CC1)c1cc(F)ccc1F (stereo not shown) [Example 57, carbamic acid 1-(2,5-difluoro-phenyl)-3-oxo-3-(4-phenyl-piperazin-1-yl)-propyl ester] | 11.2% | 34.5% | 88.8% | 27.9%
16 | NC(=O)OC(CC(=O)N1CCN(c2ccccc2)CC1)c1ccc(F)c(F)c1 (stereo not shown) [Example 60, carbamic acid 1-(3,4-difluoro-phenyl)-3-oxo-3-(4-phenyl-piperazin-1-yl)-propyl ester] | 17.2% | 28% | 21.3% | -23.5%
17 | NC(=O)O[C@H](CC(=O)N1CCN(c2ccc(Cl)cc2)CC1)c1ccccc1 [Example 61, (R)-carbamic acid 3-[4-(4-chloro-phenyl)-piperazin-1-yl]-3-oxo-1-phenyl-propyl ester] | 38.8% | 24.1% | -27.4% | 27.3%
18 | NC(=O)O[C@H](CC(=O)N1CCN(c2ccc(F)cc2)CC1)c1ccccc1 [Example 62, (R)-carbamic acid 3-[4-(4-fluoro-phenyl)-piperazin-1-yl]-3-oxo-1-phenyl-propyl ester] | 13.8% | 66.7% | 2.7% | 0.8%
19 | CCOc1ccc(N2CCN(C(=O)C[C@@H](OC(N)=O)c3ccccc3)CC2)cc1 [Example 63, (R)-carbamic acid 3-[4-(4-ethoxy-phenyl)-piperazin-1-yl]-3-oxo-1-phenyl-propyl ester] | 15.2% | 59.8% | 25% | 19.5%
